Reference: ChEMBL document CHEMBL5724914, “Linking interpersonal differences in gut microbiota composition and drug biotransformation activity” (2024)

Legend:
[1] = human gut metagenome, 24 h, 2 µM
[2] = (§1) The drug is tested on WLS-310 corresponding to human gut metagenome with ENA study accession number: PRJEB37062 and ENA sample accession number: ERS12561785 for biotransformation under anaerobic condition. The drug concentrations were measured over 9 timepoints collected between 0 and 24 hours of incubation by liquid-chromatography-coupled mass spectrometry (LC–MS); settings: 2 µM
[3] = human gut metagenome, 24 h, 2 µM; remark: listed apart in the source
[4] = as §1, with “Z-005” for “WLS-310”, “to” for “to human gut”, “ERS12561805” for “ERS12561785”; settings: 2 µM
[5] = human gut metagenome, 24 h, 2 µM; remark: listed apart in the source
[6] = human gut metagenome, 24 h, 2 µM; remark: listed apart in the source
[7] = as §1, with “Z-002” for “WLS-310”, “rabbit” for “human”, “ERS12561802” for “ERS12561785”; settings: 2 µM
[8] = as §1, with “Z-025” for “WLS-310”, “rabbit” for “human”, “ERS12561824” for “ERS12561785”; settings: 2 µM
[9] = as §1, with “WLS-086” for “WLS-310”, “ERS12561752” for “ERS12561785”; settings: 2 µM
[10] = human gut metagenome, 24 h, 2 µM; remark: listed apart in the source
[11] = human gut metagenome, 24 h, 2 µM; remark: listed apart in the source
[12] = as §1, with “Z-003” for “WLS-310”, “pig” for “human”, “ERS12561803” for “ERS12561785”; settings: 2 µM
[13] = as §1, with “WLS-073” for “WLS-310”, “ERS12561749” for “ERS12561785”; settings: 2 µM
[14] = human gut metagenome, 24 h, 2 µM; remark: listed apart in the source
[15] = human gut metagenome, 24 h, 2 µM; remark: listed apart in the source
[16] = as §1, with “Z-022” for “WLS-310”, “mouse” for “human”, “ERS12561821” for “ERS12561785”; settings: 2 µM
[17] = as §1, with “Z-018” for “WLS-310”, “pig” for “human”, “ERS12561817” for “ERS12561785”; settings: 2 µM
[18] = as §1, with “WLS-069” for “WLS-310”, “ERS12561748” for “ERS12561785”; settings: 2 µM
[19] = human gut metagenome, 24 h, 2 µM; remark: listed apart in the source
[20] = as §1, with “Z-028” for “WLS-310”, “mouse” for “human”, “ERS12561827” for “ERS12561785”; settings: 2 µM
Also: call rule not given here.

CC1=C(CC(=O)O)c2cc(F)ccc2/C1=C\c1ccc([S+](C)[O-])cc1 (stereo not given)
Bacterial Biotransformation [1]: Compound metabolized
Bacterial Biotransformation [2]: Compound metabolized
Bacterial Biotransformation [3]: Compound metabolized
Bacterial Biotransformation [4]: Compound NOT metabolized
Bacterial Biotransformation [5]: Compound metabolized
Bacterial Biotransformation [6]: Compound metabolized
Bacterial Biotransformation [7]: Compound NOT metabolized
Bacterial Biotransformation [8]: Compound NOT metabolized
Bacterial Biotransformation [9]: Compound metabolized
Bacterial Biotransformation [10]: Compound metabolized
Bacterial Biotransformation [11]: Compound metabolized
Bacterial Biotransformation [12]: Compound NOT metabolized
Bacterial Biotransformation [13]: Compound metabolized
Bacterial Biotransformation [14]: Compound metabolized
Bacterial Biotransformation [15]: Compound metabolized
Bacterial Biotransformation [16]: Compound NOT metabolized
Bacterial Biotransformation [17]: Compound metabolized
Bacterial Biotransformation [18]: Compound metabolized
Bacterial Biotransformation [19]: Compound metabolized
Bacterial Biotransformation [20]: Compound NOT metabolized

CCN1CCCC1CNC(=O)c1cc(S(=O)(=O)CC)c(N)cc1OC (stereo not given) [AMISULPRIDE]
Bacterial Biotransformation [1]: Compound NOT metabolized
Bacterial Biotransformation [2]: Compound metabolized
Bacterial Biotransformation [3]: Compound metabolized
Bacterial Biotransformation [4]: Compound NOT metabolized
Bacterial Biotransformation [5]: Compound NOT metabolized
Bacterial Biotransformation [6]: Compound metabolized
Bacterial Biotransformation [7]: Compound metabolized
Bacterial Biotransformation [8]: Compound NOT metabolized
Bacterial Biotransformation [9]: Compound metabolized
Bacterial Biotransformation [10]: Compound metabolized
Bacterial Biotransformation [11]: Compound NOT metabolized
Bacterial Biotransformation [12]: Compound metabolized
Bacterial Biotransformation [13]: Compound NOT metabolized
Bacterial Biotransformation [14]: Compound NOT metabolized
Bacterial Biotransformation [15]: Compound NOT metabolized
Bacterial Biotransformation [16]: Compound NOT metabolized
Bacterial Biotransformation [17]: Compound NOT metabolized
Bacterial Biotransformation [18]: Compound NOT metabolized
Bacterial Biotransformation [19]: Compound NOT metabolized
Bacterial Biotransformation [20]: Compound NOT metabolized

CC(C)NCC(O)COc1ccc(CC(N)=O)cc1 (stereo not given) [ATENOLOL]
Bacterial Biotransformation [1]: Compound NOT metabolized
Bacterial Biotransformation [2]: Compound metabolized
Bacterial Biotransformation [3]: Compound NOT metabolized
Bacterial Biotransformation [4]: Compound NOT metabolized
Bacterial Biotransformation [5]: Compound NOT metabolized
Bacterial Biotransformation [6]: Compound NOT metabolized
Bacterial Biotransformation [7]: Compound NOT metabolized
Bacterial Biotransformation [8]: Compound NOT metabolized
Bacterial Biotransformation [9]: Compound metabolized
Bacterial Biotransformation [10]: Compound metabolized
Bacterial Biotransformation [11]: Compound NOT metabolized
Bacterial Biotransformation [12]: Compound NOT metabolized
Bacterial Biotransformation [13]: Compound NOT metabolized
Bacterial Biotransformation [14]: Compound metabolized
Bacterial Biotransformation [15]: Compound NOT metabolized
Bacterial Biotransformation [16]: Compound NOT metabolized
Bacterial Biotransformation [17]: Compound NOT metabolized
Bacterial Biotransformation [18]: Compound metabolized
Bacterial Biotransformation [19]: Compound NOT metabolized
Bacterial Biotransformation [20]: Compound NOT metabolized

CC(=O)OCC(=O)[C@@]1(OC(C)=O)[C@@H](C)C[C@H]2[C@@H]3C[C@H](F)C4=CC(=O)C=C[C@]4(C)[C@@]3(F)[C@@H](O)C[C@@]21C [DIFLORASONE DIACETATE]
Bacterial Biotransformation [1]: Compound metabolized
Bacterial Biotransformation [2]: Compound metabolized
Bacterial Biotransformation [3]: Compound metabolized
Bacterial Biotransformation [4]: Compound metabolized
Bacterial Biotransformation [5]: Compound metabolized
Bacterial Biotransformation [6]: Compound metabolized
Bacterial Biotransformation [7]: Compound metabolized
Bacterial Biotransformation [8]: Compound NOT metabolized
Bacterial Biotransformation [9]: Compound metabolized
Bacterial Biotransformation [10]: Compound metabolized
Bacterial Biotransformation [11]: Compound metabolized
Bacterial Biotransformation [12]: Compound NOT metabolized
Bacterial Biotransformation [13]: Compound metabolized
Bacterial Biotransformation [14]: Compound metabolized
Bacterial Biotransformation [15]: Compound metabolized
Bacterial Biotransformation [16]: Compound NOT metabolized
Bacterial Biotransformation [17]: Compound metabolized
Bacterial Biotransformation [18]: Compound metabolized
Bacterial Biotransformation [19]: Compound metabolized
Bacterial Biotransformation [20]: Compound metabolized

CN(C)CCC=C1c2ccccc2COc2ccccc21 [DOXEPIN]
Bacterial Biotransformation [1]: Compound metabolized
Bacterial Biotransformation [2]: Compound metabolized
Bacterial Biotransformation [3]: Compound metabolized
Bacterial Biotransformation [4]: Compound NOT metabolized
Bacterial Biotransformation [5]: Compound metabolized
Bacterial Biotransformation [6]: Compound NOT metabolized
Bacterial Biotransformation [7]: Compound NOT metabolized
Bacterial Biotransformation [8]: Compound NOT metabolized
Bacterial Biotransformation [9]: Compound NOT metabolized
Bacterial Biotransformation [10]: Compound metabolized
Bacterial Biotransformation [11]: Compound NOT metabolized
Bacterial Biotransformation [12]: Compound NOT metabolized
Bacterial Biotransformation [13]: Compound metabolized
Bacterial Biotransformation [14]: Compound NOT metabolized
Bacterial Biotransformation [15]: Compound metabolized
Bacterial Biotransformation [16]: Compound NOT metabolized
Bacterial Biotransformation [17]: Compound NOT metabolized
Bacterial Biotransformation [18]: Compound metabolized
Bacterial Biotransformation [19]: Compound metabolized
Bacterial Biotransformation [20]: Compound NOT metabolized

C[C@]12CCC(=O)C=C1[C@@H]1C[C@@H]1[C@H]1[C@@H]3[C@@H]4C[C@@H]4[C@@]4(CCC(=O)O4)[C@@]3(C)CC[C@@H]12 [DROSPIRENONE]
Bacterial Biotransformation [1]: Compound metabolized
Bacterial Biotransformation [2]: Compound metabolized
Bacterial Biotransformation [3]: Compound metabolized
Bacterial Biotransformation [4]: Compound metabolized
Bacterial Biotransformation [5]: Compound metabolized
Bacterial Biotransformation [6]: Compound metabolized
Bacterial Biotransformation [7]: Compound metabolized
Bacterial Biotransformation [8]: Compound NOT metabolized
Bacterial Biotransformation [9]: Compound metabolized
Bacterial Biotransformation [10]: Compound NOT metabolized
Bacterial Biotransformation [11]: Compound NOT metabolized
Bacterial Biotransformation [12]: Compound metabolized
Bacterial Biotransformation [13]: Compound metabolized
Bacterial Biotransformation [14]: Compound metabolized
Bacterial Biotransformation [15]: Compound NOT metabolized
Bacterial Biotransformation [16]: Compound NOT metabolized
Bacterial Biotransformation [17]: Compound metabolized
Bacterial Biotransformation [18]: Compound metabolized
Bacterial Biotransformation [19]: Compound metabolized
Bacterial Biotransformation [20]: Compound NOT metabolized

CC(C)c1c(CN(C)C(C)Cc2ccccc2)n(C)n(-c2ccccc2)c1=O (stereo not given) [FAMPROFAZONE]
Bacterial Biotransformation [1]: Compound metabolized
Bacterial Biotransformation [2]: Compound metabolized
Bacterial Biotransformation [3]: Compound metabolized
Bacterial Biotransformation [4]: Compound metabolized
Bacterial Biotransformation [5]: Compound metabolized
Bacterial Biotransformation [6]: Compound metabolized
Bacterial Biotransformation [7]: Compound metabolized
Bacterial Biotransformation [8]: Compound NOT metabolized
Bacterial Biotransformation [9]: Compound metabolized
Bacterial Biotransformation [10]: Compound metabolized
Bacterial Biotransformation [11]: Compound NOT metabolized
Bacterial Biotransformation [12]: Compound metabolized
Bacterial Biotransformation [13]: Compound metabolized
Bacterial Biotransformation [14]: Compound metabolized
Bacterial Biotransformation [15]: Compound metabolized
Bacterial Biotransformation [16]: Compound metabolized
Bacterial Biotransformation [17]: Compound NOT metabolized
Bacterial Biotransformation [18]: Compound metabolized
Bacterial Biotransformation [19]: Compound metabolized
Bacterial Biotransformation [20]: Compound NOT metabolized
